Experiments:
[1] = test system: AGS; assay: 3D cell proliferation inhibition assay (CellTiter-Glo 3D); format: cell-based; conditions: Homo sapiens, 120 h; AGS cells, KRAS G12D, 3D culture, 5 days with compound
Description: (§1) This experiment uses the cells listed in the table below to evaluate the inhibitory effects of the compounds on the proliferation of KRAS mutant or KRAS amplified cells.
(§2) On the first day of the experiment, cells that were growing well and had reached 70%-80% confluence were digested, resuspended in culture medium, and the cell density was adjusted to the desired level. In a U-shaped low-attachment 96-well plate (Corning, 7007), 90 µL of cell suspension was added per well, with the cell density as shown in the table above. The cell plate was centrifuged at 2500 rpm for 5 minutes and then placed in an incubator for 24 hours of culture. On the second day, the 20 mM test compound dissolved in DMSO was diluted with DMSO to the first concentration of 2 or 0.2 mM, and then serially diluted in a 5-fold gradient to obtain 9 concentration points, with the control well containing DMSO. The serially diluted compound was then further diluted 20-fold with culture medium. 10 µL of the test compound diluted in culture medium was added to each well of the cell plate. The final concentrations of the compound were 9 points in a 5-fold serial dilution starting from 10 or 1 µM. Cell wells containing 0.5% DMSO were set as vehicle control wells, and wells containing only culture medium and 0.5% DMSO were set as blank control wells. The cell plate was centrifuged at 2000 rpm for 3 minutes and then placed in an incubator for 5 days of culture. On the seventh day, the 96-well cell culture plate was taken out, and 50 µL of the luminescent cell viability detection reagent, CellTiter-Glo® 3D Cell Viability Assay (Promega, G9683), was added to each well. After shaking at room temperature for 25 minutes, the mixture was pipetted up and down to mix, and 100 µL was transferred from each well to a white, opaque-bottom OptiPlate™-96 well plate (PerkinElmer, 6005290). The luminescence signal value was read using a multimode microplate reader (PerkinElmer, EnVision2105).
(§3) The inhibition rate was calculated using the following formula: Inhibition rate = (Luminescence value vehicle control well - Luminescence value test compound)/(Luminescence value vehicle control well - Luminescence value blank control well) × 100%. The IC50 values of the compound inhibitory activity were calculated using Graphpad Prism software. Table 1. Data of inhibitory activity on 3D cell proliferation (unit: nM)

[2] = test system: GP2d; assay: as above; format: cell-based; conditions: GP2d cells, KRAS G12D, 3D culture, 5 days with compound
Description: as §1, §2, §3

[3] = test system: AsPC-1; assay: as above; format: cell-based; conditions: Homo sapiens, ASPC1, 120 h; AsPC-1 cells, KRAS G12D, 3D culture, 5 days with compound
Description: as §1, §2, §3

[4] = test system: H358; assay: as above; format: cell-based; conditions: Homo sapiens, NCI-H358, 120 h; H358 cells, KRAS G12C, 3D culture, 5 days with compound
Description: as §1, §2, §3

[5] = test system: MKN1; assay: as above; format: cell-based; conditions: Homo sapiens, MKN-1, 120 h; MKN1 cells, KRAS Amp, 3D culture, 5 days with compound
Description: as §1, §2, §3

[6] = in vivo; conditions: rat, in vivo, po, 20 mg/kg
Description: Using SD rats as the test animals, the plasma concentrations of the example compounds at different time points were determined by LC-MS/MS following oral gavage (i.g.) administration. The pharmacokinetic behaviours of the compounds of the present disclosure in rats were investigated, and their pharmacokinetic profiles were evaluated.
Blood samples (0.2 mL) were collected from the orbit before administration and at 0.25, 0.5, 1.0, 2.0, 4.0, 6.0, 8.0, 11.0, and 24.0 hours after administration. The samples were placed in EDTA-K2 anticoagulant tubes, centrifuged at 10,000 rpm for 2 minute (4°C), and the plasma was separated within 1 hour and stored at -20°C or -80°C until analysis. The entire process from blood collection to centrifugation was performed in ice bath conditions.
The mixture was vortexed and then centrifuged at 4000 rpm for 15 minutes; the supernatant was taken for LC-MS/MS analysis. […] The mixture was vortexed and then centrifuged at 3700 rpm for 10 minutes; the supernatant was taken for LC-MS/MS analysis.
The mixture was vortexed and then centrifuged at 4000 rpm for 15 minutes; the supernatant was taken for LC-MS/MS analysis. […] The mixture was vortexed and then centrifuged at 4000 rpm for 15 minutes; the supernatant was taken for LC-MS/MS analysis.

| Compound | IC50 [1] [nM] | IC50 ([2]; GP2d, 120 h) [nM] | IC50 [3] [nM] | further results |
| --- | --- | --- | --- | --- |
| N#Cc1c(N)sc2c(F)ccc(-c3c4c(c5c(N6C7CCC6CNC7)nc(OCC67CCCN6CC(=C(F)F)C7)nc5c3F)COC4)c12 (centres unmarked) [Example 17, 4-(1-(3,8-Diazabicyclo[3.2.1]oct-8-yl)-3-((2-(difluoromethylene)tetrahydro-1H-pyrrolizin-7a(5H)-yl)methoxy)-5-fluoro-7,9-dihydrofuro[3,4-f]quinazolin-6-yl)-2-amino-7-fluorobenzo[b]thiophene-3-carbonitrile] | 2.86 | 0.57 |  |  |
| C[C@@H](O)CN1CC2CCC(C1)N2c1nc(OCC2(CN3CCC(=CF)CC3)CC2)nc2c(F)c(-c3ncc(F)c4sc(N)c(C#N)c34)c3c(c12)COC3 [Example 1, 2-amino-7-fluoro-4-(5-fluoro-3-((1-((4-(fluoromethylene)piperidin-1-yl)methyl)cyclopropyl)methoxy)-1-(3-((R)-2-hydroxypropyl)-3,8-diazabicyclo[3.2.1]oct-8-yl)-7,9-dihydrofuro[3,4-f]quinazolin-6-yl)thieno[3,2-c]pyridine-3-carbonitrile] | 1.03 | 0.28 | 4.17 |  |
| C=CC(=O)N1C[C@H](C)N(c2nc(OCC3(CN4CCC(=C(F)F)CC4)CC3)nc3c(F)c(-c4ncc(F)c5sc(N)c(C#N)c45)c4c(c23)COC4)C[C@H]1C [Example 56] |  |  |  | IC50 [4]: 6.76 nM |
| N#Cc1c(N)sc2c(F)cnc(-c3c4c(c5c(N6C7CCC6CN(O)C7)nc(OCC6(CN7CCC(=CF)CC7)CC6)nc5c3F)COC4)c12 [Example 22, 2-Amino-7-fluoro-4-(5-fluoro-3-((1-((4-(fluoromethylene)piperidin-1-yl)methyl)cyclopropyl)methoxy)-1-(3-hydroxyl-3,8-diazabicyclo[3.2.1]oct-8-yl)-7,9-dihydrofuro[3,4-f]quinazolin-6-yl)thieno[3,2-c]pyridine-3-carbonitrile] | 1.57 | 0.26 | 4.64 |  |
| N#Cc1c(N)sc2c(F)ccc(-c3c4c(c5c(N6C7CCC6CNC7)nc(OCC6(CN7CCC(=CF)CC7)CC6)nc5c3F)COC4)c12 (single isomer, unassigned) [Example 9B] |  |  |  | IC50 [2]: 2.6 nM |
| N#Cc1c(N)sc2c(F)ccc(-c3c4c(c5c(N6C7CCC6CNC7)nc(OCC6(CN7CCC(=CF)CC7)CC6)nc5c3F)COC4)c12 [Example 9, 4-(1-(3,8-diazabicyclo[3.2.1]oct-8-yl)-5-fluoro-3-((1-((4-(fluoromethylene)piperidin-1-yl)methyl)cyclopropyl)methoxy)-7,9-dihydrofuro[3,4-f]quinazolin-6-yl)-2-amino-7-fluorobenzo[b]thiophene-3-carbonitrile] | 1.09 | 0.26 | 9.95 |  |
| N#Cc1c(N)sc2c(F)ccc(-c3c4c(c5c(N6C7CCC6CNC7)nc(OCC6(CN7CCC(=CF)CC7)CC6)nc5c3F)COC4)c12 (single isomer, unassigned) [Example 9A] | 4.22 |  |  | IC50 [2]: 0.16 nM |
| C=CC(=O)N1CC2CCC(C1)N2c1nc(OCC2(CN3CCC(=C(F)F)CC3)CC2)nc2c(F)c(-c3ncc(F)c4sc(N)c(C#N)c34)c3c(c12)COC3 [Example 55] |  |  |  | IC50 [4]: 0.63 nM |
| N#Cc1c(N)sc2ccc(F)c(-c3c4c(c5cnc(OCC6(CN7CCC(=CF)CC7)CC6)nc5c3F)COC4)c12 [Example 40, 2-Amino-5-fluoro-4-(5-fluoro-3-((1-((4-(fluoromethylene)piperidin-1-yl)methyl)cyclopropyl)methoxy)-7,9-dihydrofuro[3,4-f]quinazolin-6-yl)benzo[b]thiophene-3-carbonitrile] |  | 8.4 |  | IC50 [5]: 11.1 nM |
| N#Cc1c(N)sc2c(F)ccc(-c3c4c(c5cnc(OC[C@@]67CCCN6C[C@H](F)C7)nc5c3Cl)COC4)c12 (single isomer, unassigned) [60A (reference), reference compound] |  |  |  | AUC(0-t) [6]: 1820 ng·h/mL; CL/F [6]: 178 mL/min/kg; Cmax [6]: 143 ng/mL; Vd/F [6]: 54.5 L/kg; half-life [6]: 3.53 h |
| C=C1CN2CC(=C)CC2(COc2ncc3c4c(c(-c5ccc(F)c6sc(N)c(C#N)c56)c(F)c3n2)COC4)C1 [Example 26, 2-Amino-4-(3-((2,6-dimethylenetetrahydro-1H-pyrrolizin-7a(5H)-yl)methoxy)-5-fluoro-7,9-dihydrofuro[3,4-f]quinazolin-6-yl)-7-fluorobenzo[b]thiophene-3-carbonitrile] |  | 9.79 |  | IC50 [5]: 13.2 nM |
| N#Cc1c(N)sc2c(F)cnc(-c3c4c(c5c(N6C7CCC6CN(O)C7)nc(OCC6(CN7CCC(=C(F)F)CC7)CC6)nc5c3F)COC4)c12 [Example 21, 2-Amino-4-(3-((1-((4-(difluoromethylene)piperidin-1-yl)methyl)cyclopropyl)methoxy)-5-fluoro-1-(3-hydroxyl-3,8-diazabicyclo[3.2.1]oct-8-yl)-7,9-dihydrofuro[3,4-f]quinazolin-6-yl)-7-fluorothieno[3,2-c]pyridine-3-carbonitrile] |  | 2.12 |  |  |
| N#Cc1c(N)sc2c(F)ccc(-c3c4c(c5c(N6C7CCC6CNC7)nc(OCC6(CN7CCC(=C(F)F)CC7)CC6)nc5c3F)COC4)c12 [Example 11, 4-(1-(3,8-diazabicyclo[3.2.1]oct-8-yl)-3-((1-((4-(difluoromethylene)piperidin-1-yl)methyl)cyclopropyl)methoxy)-5-fluoro-7,9-dihydrofuro[3,4-f]quinazolin-6-yl)-2-amino-7-fluorobenzo[b]thiophene-3-carbonitrile] | 8.64 | 0.86 |  |  |
| N#Cc1c(N)sc2c(F)ccc(-c3c4c(c5cnc(OCC6(CN7CCC(=CF)CC7)CC6)nc5c3F)COC4)c12 [Example 14, 2-Amino-7-fluoro-4-(5-fluoro-3-((1-((4-(fluoromethylene)piperidin-1-yl)methyl)cyclopropyl)methoxy)-7,9-dihydrofuro[3,4-f]quinazolin-6-yl)benzo[b]thiophene-3-carbonitrile] | 15.1 | 5.85 |  | IC50 [5]: 8.1 nM |
| C=C1CN2CC(=C)CC2(COc2nc(N3C4CCC3CNC4)c3c4c(c(-c5ccc(F)c6sc(N)c(C#N)c56)c(F)c3n2)COC4)C1 [Example 18, 4-(1-(3,8-Diazabicyclo[3.2.1]oct-8-yl)-3-((2,6-dimethylenetetrahydro-1H-pyrrolizin-7a(5H)-yl)methoxy)-5-fluoro-7,9-dihydrofuro[3,4-f]quinazolin-6-yl)-2-amino-7-fluorobenzo[b]thiophene-3-carbonitrile] | 4.89 | 0.53 |  |  |
| N#Cc1c(N)sc2c(F)cnc(-c3c4c(c5c(N6C7CCC6CNC7)nc(OCC6(CN7CCC(=C(F)F)CC7)CC6)nc5c3F)COC4)c12 [Example 20, 4-(1-(3,8-diazabicyclo[3.2.1]oct-8-yl)-3-((1-((4-(difluoromethylene)piperidin-1-yl)methyl)cyclopropyl)methoxy)-5-fluoro-7,9-dihydrofuro[3,4-f]quinazolin-6-yl)-2-amino-7-fluorothieno[3,2-c]pyridine-3-carbonitrile] | 2.09 | 0.27 | 7.56 |  |
| N#Cc1c(N)sc2c(F)cnc(-c3c4c(c5c(N6C7CCC6CNC7)nc(OCC6(CN7CCC(=CF)CC7)CC6)nc5c3F)COC4)c12 [Example 1i, 4-(1-(3,8-diazabicyclo[3.2.1]oct-8-yl)-5-fluoro-3-((1-((4-(fluoromethylene)piperidin-1-yl)methyl)cyclopropyl)methoxy)-7,9-dihydrofuro[3,4-f]quinazolin-6-yl)-2-amino-7-fluorothieno[3,2-c]pyridine-3-carbonitrile] | 1.03 | 0.34 | 5.07 |  |
| C[C@@H](O)CN1CC2CCC(C1)N2c1nc(OCC2(C#N)CC2)nc2c(F)c(-c3ncc(F)c4sc(N)c(C#N)c34)c3c(c12)COC3 [58 (reference), reference compound] | 2000 | > 1000 | 3330 |  |
| N#Cc1c(N)sc2c(F)ccc(-c3c4c(c5c(N6C7CCC6CNC7)nc(OCC67CCCN6CC(=CF)C7)nc5c3F)COC4)c12 (centres unmarked) [Example 13, 4-(1-(3,8-Diazabicyclo[3.2.1]oct-8-yl)-5-fluoro-3-((2-(fluoromethylene)tetrahydro-1H-pyrrolizin-7a(5H)-yl)methoxy)-7,9-dihydrofuro[3,4-f]quinazolin-6-yl)-2-amino-7-fluorobenzo[b]thiophene-3-carbonitrile] | 2.19 | 0.39 |  |  |
